This note sets out measurements from PMC6679423 (International Journal of Molecular Sciences, 2019).

Series [1] relates to human recombinant CYP3A5. The experiment in a line: Vandetanib oxidation by human recombinant CYP3A5 (Supersomes). Format: in vitro ADME. As to the method:
Vandetanib was from LC Laboratories (Woburn, MA, USA). Ketoconazole, NADPH, methimazol and other chemicals were all purchased from Sigma-Aldrich (St. Louis, MO, USA). The purity of all chemicals met the standards of American Chemical Society, unless noted otherwise. All animal experiments were conducted in accordance with the Regulations for the Care and Use of Laboratory Animals (311/1997, Ministry of Agriculture, Czech Republic), which follows the Declaration of Helsinki. Male Wistar rats (~125–150 g; AnLab, Czech Republic), male C57BL/6 mice ([…]; CXR Bioscience Ltd., Dundee, UK), and male New Zealand rabbits (2.5–3 kg; AnLab, Czech Republic) were employed as animal models. Animals were placed in cages in temperature- and humidity-controlled rooms, acclimatized for five days and maintained at 22 °C with a 12 h light/dark period. Standardized diet and water were provided ad libitum. Rats, mice and rabbits used to prepare microsomal fraction from untreated animals were sacrificed by cervical dislocation, livers snap-frozen in liquid nitrogen and stored at −80 °C until further processing (see below). […] Protein concentrations in the microsomal fractions were assessed using the bicinchoninic acid protein assay with bovine serum albumin as a standard. […]

The target of series [2] is T1, human recombinant CYP1A1 (Homo sapiens, UniProt P04798).
T1 construct: purchased Gentest Corp; host or cells: insect cells (baculovirus)
T1 sequence (P04798 1-512): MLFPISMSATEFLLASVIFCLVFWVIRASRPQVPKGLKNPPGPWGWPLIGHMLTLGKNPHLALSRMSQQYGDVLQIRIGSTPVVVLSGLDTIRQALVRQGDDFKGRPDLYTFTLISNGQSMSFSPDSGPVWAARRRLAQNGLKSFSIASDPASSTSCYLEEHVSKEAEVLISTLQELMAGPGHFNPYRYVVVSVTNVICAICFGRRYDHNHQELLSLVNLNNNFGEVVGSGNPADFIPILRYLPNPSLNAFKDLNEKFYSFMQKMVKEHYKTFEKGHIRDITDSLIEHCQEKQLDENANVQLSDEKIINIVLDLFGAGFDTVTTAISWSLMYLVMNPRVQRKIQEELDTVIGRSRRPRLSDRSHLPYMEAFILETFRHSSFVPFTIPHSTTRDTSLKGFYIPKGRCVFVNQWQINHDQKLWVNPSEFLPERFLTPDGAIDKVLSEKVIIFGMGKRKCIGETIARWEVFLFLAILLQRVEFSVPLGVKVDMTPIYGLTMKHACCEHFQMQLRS
The experiment in a line: Vandetanib oxidation by human recombinant CYP1A1 (Supersomes). It counts as in vitro ADME. As to the method:
Vandetanib was from LC Laboratories (Woburn, MA, USA). Ketoconazole, NADPH, methimazol and other chemicals were all purchased from Sigma-Aldrich (St. Louis, MO, USA). The purity of all chemicals met the standards of American Chemical Society, unless noted otherwise. All animal experiments were conducted in accordance with the Regulations for the Care and Use of Laboratory Animals (311/1997, Ministry of Agriculture, Czech Republic), which follows the Declaration of Helsinki. Male Wistar rats (~125–150 g; AnLab, Czech Republic), male C57BL/6 mice ([…]; CXR Bioscience Ltd., Dundee, UK), and male New Zealand rabbits (2.5–3 kg; AnLab, Czech Republic) were employed as animal models. Animals were placed in cages in temperature- and humidity-controlled rooms, acclimatized for five days and maintained at 22 °C with a 12 h light/dark period. Standardized diet and water were provided ad libitum. Rats, mice and rabbits used to prepare microsomal fraction from untreated animals were sacrificed by cervical dislocation, livers snap-frozen in liquid nitrogen and stored at −80 °C until further processing (see below). For controls, livers of the animals were removed immediately after sacrifice, divided into small pieces (~1 g), snap-frozen in liquid nitrogen, and stored at −80 °C until isolation of microsomal fractions. Pooled microsomes were used for all in vitro experiments in the present study and prepared from 10 livers/group for all animal species following established protocols. Microsomal fractions were stored at −80 °C until analysis. Protein concentrations in the microsomal fractions were assessed using the bicinchoninic acid protein assay with bovine serum albumin as a standard. Male human hepatic microsomes (pooled sample) (sample LOT: 3043885) were from Gentest Corp. (Woburn, MA, USA). Microsomes from livers of twelve human donors were obtained from Gentest Corp. (Woburn, MA, USA) (cat. no. HG43–1, HG103, HG74, HG93, HG24, HG27, HG23, HG32, HK31, HK34, HG03, and HG42). Each human microsomal sample has been characterized for CYP, FMO and protein contents and specific CYP activities by Gentest Corp. We reanalyzed each microsomal preparation for specific CYP, NADPH:CYP reductase (POR) and FMO activities by assays described in the protocols of Gentest Corp. Our data were similar to those reported by Gentest Corp. in their specification sheets. […]

Setting [3] is: without consideration of cytochrome b5.

Each structure is given as a SMILES string. Where only a bound is given, the exact number is not on record here.

On to `COc1cc2c(Nc3ccc(Br)cc3F)ncnc2cc1OCC1CCNCC1` [N-desmethylvandetanib], for which the “fold increase of N-desmethylvandetanib formation by cytochrome b5” value in series [1] (CYP3A5 with vs without cytochrome b5) came out at 7 fold. Besides, the “contribution of CYP3A5 to N-desmethylvandetanib formation in human liver” value in series [1] (setting [3]) is less than 0.3%. The “effect of cytochrome b5 on N-desmethylvandetanib formation” value in series [2] (CYP1A1 with vs without cytochrome b5) was “essentially no such effect”. Besides, in series [2] (setting [3]), the “contribution of CYP1A1 to N-desmethylvandetanib formation in human liver” value is listed as less than 0.3%.
